We go through 13 molecules from patent US11993599B2, “Therapeutic compounds” (Genentech, Inc., priority 2021, dated 2024).

Type in all cases: cell-based
The target in experiment [1] is T1, BRM (Homo sapiens, UniProt P51531). As to the kind of experiment: Immunofluorescence assay for BRM degradation in SW1573 cells. Particulars: 20 hours incubation; for DC50: immunofluorescence mean nuclear signal, read-out: BRM IF Degradation IC50; for BRM IF Degradation Sinf (%): normalized to a known degrader control. Also on record: treated overnight at 4° C. with either BRM primary antibody (Cell signaling Cat #11966) or BRG primary antibody; endogenous in cells; host or cells: SW1573. The procedure, abridged: (§1)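 Degradation measured as loss of nuclear BRM or BRG1 staining in SW1573 cells after 20 h compound exposure. Signal per cell was imaged and normalized to a known degrader; curves with floating maximum yielded IC50 and Dmax.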
T1 sequence (P51531 whole entry): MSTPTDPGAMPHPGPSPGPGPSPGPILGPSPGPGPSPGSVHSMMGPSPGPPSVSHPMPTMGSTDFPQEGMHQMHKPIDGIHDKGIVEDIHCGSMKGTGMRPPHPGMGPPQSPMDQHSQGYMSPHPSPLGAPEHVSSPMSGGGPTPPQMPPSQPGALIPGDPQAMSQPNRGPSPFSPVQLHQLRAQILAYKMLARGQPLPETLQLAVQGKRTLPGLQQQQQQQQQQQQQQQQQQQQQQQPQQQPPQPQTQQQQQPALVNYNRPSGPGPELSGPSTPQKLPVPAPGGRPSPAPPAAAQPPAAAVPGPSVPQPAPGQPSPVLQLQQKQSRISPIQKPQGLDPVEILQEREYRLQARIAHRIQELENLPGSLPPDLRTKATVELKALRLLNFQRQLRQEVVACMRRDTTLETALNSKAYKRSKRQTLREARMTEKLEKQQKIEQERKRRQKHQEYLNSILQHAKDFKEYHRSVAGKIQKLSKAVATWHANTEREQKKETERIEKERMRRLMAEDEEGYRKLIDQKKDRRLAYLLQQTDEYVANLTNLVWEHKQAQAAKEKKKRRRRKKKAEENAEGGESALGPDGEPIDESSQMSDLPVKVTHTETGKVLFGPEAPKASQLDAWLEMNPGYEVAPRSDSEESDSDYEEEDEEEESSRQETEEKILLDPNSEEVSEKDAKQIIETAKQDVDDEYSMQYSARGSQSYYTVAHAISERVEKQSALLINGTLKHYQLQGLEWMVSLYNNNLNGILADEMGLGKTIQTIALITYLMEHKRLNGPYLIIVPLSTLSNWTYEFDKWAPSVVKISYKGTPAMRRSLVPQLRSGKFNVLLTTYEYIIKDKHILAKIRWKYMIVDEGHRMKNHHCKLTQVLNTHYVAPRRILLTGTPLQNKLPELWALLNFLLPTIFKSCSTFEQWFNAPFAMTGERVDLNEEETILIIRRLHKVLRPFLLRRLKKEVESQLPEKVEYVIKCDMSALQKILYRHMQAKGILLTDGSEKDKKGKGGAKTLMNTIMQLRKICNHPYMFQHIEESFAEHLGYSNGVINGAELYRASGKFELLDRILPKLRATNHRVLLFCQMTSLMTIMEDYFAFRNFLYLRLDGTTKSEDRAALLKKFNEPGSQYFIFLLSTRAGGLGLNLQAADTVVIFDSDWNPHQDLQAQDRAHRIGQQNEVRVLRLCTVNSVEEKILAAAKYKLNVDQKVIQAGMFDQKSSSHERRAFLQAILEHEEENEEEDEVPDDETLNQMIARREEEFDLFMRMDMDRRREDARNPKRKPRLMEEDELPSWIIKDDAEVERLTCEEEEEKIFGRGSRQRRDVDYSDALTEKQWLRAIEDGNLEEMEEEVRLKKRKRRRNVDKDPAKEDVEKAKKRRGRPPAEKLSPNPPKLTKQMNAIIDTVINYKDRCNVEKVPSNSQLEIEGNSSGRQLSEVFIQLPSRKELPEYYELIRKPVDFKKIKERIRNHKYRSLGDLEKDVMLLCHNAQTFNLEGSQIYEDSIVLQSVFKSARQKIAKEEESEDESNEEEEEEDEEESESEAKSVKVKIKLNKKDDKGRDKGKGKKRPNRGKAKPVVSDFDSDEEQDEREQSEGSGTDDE

For a further experiment, the target named is T2, BRG1 (Homo sapiens, UniProt P51532).
T2 construct: either BRM primary antibody (Cell signaling Cat #11966) or BRG primary antibody (Abcam, ab 110641); endogenous in cells; host or cells: SW1573
T2 sequence (P51532 whole entry): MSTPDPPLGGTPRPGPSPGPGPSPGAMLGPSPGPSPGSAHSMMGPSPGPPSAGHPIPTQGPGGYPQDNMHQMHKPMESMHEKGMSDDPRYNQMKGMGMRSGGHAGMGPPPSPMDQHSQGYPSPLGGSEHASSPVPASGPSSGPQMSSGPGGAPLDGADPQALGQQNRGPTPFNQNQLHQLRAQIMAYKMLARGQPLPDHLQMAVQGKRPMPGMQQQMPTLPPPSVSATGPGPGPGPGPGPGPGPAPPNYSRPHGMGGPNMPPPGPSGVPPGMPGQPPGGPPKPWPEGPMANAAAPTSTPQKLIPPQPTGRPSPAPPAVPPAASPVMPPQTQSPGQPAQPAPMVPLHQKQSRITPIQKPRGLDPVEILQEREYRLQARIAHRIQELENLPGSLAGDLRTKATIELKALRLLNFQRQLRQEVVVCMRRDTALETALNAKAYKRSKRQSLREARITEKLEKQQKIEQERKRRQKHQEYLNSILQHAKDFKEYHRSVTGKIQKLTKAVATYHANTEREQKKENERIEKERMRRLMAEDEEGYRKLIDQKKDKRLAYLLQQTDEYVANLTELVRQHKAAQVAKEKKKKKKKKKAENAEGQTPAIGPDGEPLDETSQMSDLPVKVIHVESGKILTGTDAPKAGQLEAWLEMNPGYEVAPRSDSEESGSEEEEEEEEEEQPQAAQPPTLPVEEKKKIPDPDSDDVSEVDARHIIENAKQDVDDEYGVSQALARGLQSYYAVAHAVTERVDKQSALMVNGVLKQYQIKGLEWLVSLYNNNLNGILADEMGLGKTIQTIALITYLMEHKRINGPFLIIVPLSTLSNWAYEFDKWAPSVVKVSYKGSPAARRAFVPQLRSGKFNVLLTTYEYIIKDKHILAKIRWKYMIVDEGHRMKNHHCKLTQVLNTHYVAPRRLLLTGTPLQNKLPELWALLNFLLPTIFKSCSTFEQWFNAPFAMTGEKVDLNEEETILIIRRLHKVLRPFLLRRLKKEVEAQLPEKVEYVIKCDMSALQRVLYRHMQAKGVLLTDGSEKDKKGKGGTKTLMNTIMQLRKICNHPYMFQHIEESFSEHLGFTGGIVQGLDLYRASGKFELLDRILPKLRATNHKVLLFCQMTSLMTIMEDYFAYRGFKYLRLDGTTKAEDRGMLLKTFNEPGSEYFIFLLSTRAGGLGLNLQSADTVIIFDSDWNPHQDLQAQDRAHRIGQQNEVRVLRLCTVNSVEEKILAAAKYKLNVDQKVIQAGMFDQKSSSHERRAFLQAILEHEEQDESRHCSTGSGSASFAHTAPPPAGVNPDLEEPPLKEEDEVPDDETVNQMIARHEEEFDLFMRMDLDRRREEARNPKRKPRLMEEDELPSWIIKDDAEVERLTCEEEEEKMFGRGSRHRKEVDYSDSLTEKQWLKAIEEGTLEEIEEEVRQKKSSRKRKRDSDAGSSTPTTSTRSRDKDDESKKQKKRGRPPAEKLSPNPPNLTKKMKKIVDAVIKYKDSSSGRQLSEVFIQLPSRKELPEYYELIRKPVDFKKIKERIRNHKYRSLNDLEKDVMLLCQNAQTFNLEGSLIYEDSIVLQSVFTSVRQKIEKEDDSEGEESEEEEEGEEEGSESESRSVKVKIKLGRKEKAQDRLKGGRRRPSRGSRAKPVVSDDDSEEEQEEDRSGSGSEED
Description: Immunofluorescence assay for BRG1 degradation in SW1573 cells. To be noted: 20 hours incubation; for DC50: immunofluorescence mean nuclear signal, read-out: BRG1 IF Degradation IC50; for Dmax: SW1573, 20 h, normalized to a known degrader control, read-out: BRG1 IF Degradation Sinf (%). The procedure, abridged:
as §1

Experiment [2] concerns the target T1, BRM. Description: HiBIT nanoluciferase complementation screen for BRM degraders. Particulars: 18 hours, BRM-HiBIT KI Hela cells, luminescence normalized: DMSO only = 0%, no cells = −100%; for Median HiBiT activity 1 μM: compound 1 μM; for Median HiBiT activity 10 μM: compound 10 μM. The source says:
Example B-1: HiBIT Nanoluciferase Complementation Screen for BRM Degraders
To assess BRM degradation, compounds were screened for their effect of BRM levels using the HiBIT nanoluciferase complementation strategy developed at Promega. In brief, a HELA cell line that was genetically modified via CRISPR/CAS9 was used to fuse the HiBIT sequence at the 3′ end of BRM (BRM-HiBIT KI Hela). BRM protein levels were then detected using the Nano-Glo HiBIT lytic detection reagent (Promega).
The screened compounds were plated into a white 384-well plate at 10 μM and 1 μM in 25 nL DMSO using an Echo dispenser (Labcyte). BRM-HiBIT KI Hela cells were seeded in the compound plate at 5000 cell per well at 25 μl in DMEM growth media (containing 10% FBS, 1% Glutamax (GIBCO cat #31053-028), lx Penicillin-Streptomycin (ROCHE, cat #1107444001), 4.5 g/L D-Glucose, and no phenol red). After incubation with compounds for 18 hours at 37° C., cell viability was assessed by the addition of 5 μl Cell Titer-Fluor reagent (Promega). After 30 s of mixing on an orbital shaker, and 30 minutes incubation at 37° C., fluorescence was measured with an INFINITE F500 (Tecan) (380-400 nm excitation, 505 nm emission). Next, to assess BRM HiBIT levels, 30 μl of Nano-Glo HiBIT lytic detection reagent (Promega) containing 1:50 Nano-Glo HiBIT lytic substrate and 1:100 LgBIT protein per ml of lytic buffer was added. After shaking on an orbital shaker at 350 rpm for 10 minutes, luminescence was measured on the INFINITE F500 (Tecan). To assess compound effects, luminescence signal was normalized with the mean of wells treated with DMSO only set to 0% and the mean of wells containing no cells set to −100%. Note that, in Table 4, the “Compound Number” corresponds to that used in Table 1.

For the molecule `Nc1nnc(-c2ccccc2O)cc1N1CC2CCC(C1)N2c1ccnc(C#CC2CCCNC2)c1` (stereo not drawn) [Compound 8, 2-(6-amino-5-(8-(2-(piperidin-3-ylethynyl)pyridin-4-yl)-3,8-diazabicyclo[3.2.1]octan-3-yl)pyridazin-3-yl)phenol], on BRM [1], the DC50 was in the range of 10 to 100 nM and the “BRM IF Degradation Sinf (%)” value is “E (E indicates −30%-−70%)”. For the same molecule, the DC50 on BRG1 is above 100 nM. Moreover, on BRM [2], the “Median HiBiT activity 1 μM” value was −51.6794% and the “Median HiBiT activity 10 μM” value was −23.8415%.
In the case of `Nc1nnc(-c2ccccc2O)cc1N1CC2CCC(C1)N2c1ccnc(C#CCN2CCOCC2)c1` [Compound 9, 2-(6-amino-5-(8-(2-(3-morpholinoprop-1-yn-1-yl)pyridin-4-yl)-3,8-diazabicyclo[3.2.1]octan-3-yl)pyridazin-3-yl)phenol], on BRM [1], the DC50 lay in the range of 10 to 100 nM and the “BRM IF Degradation Sinf (%)” value is “E (E indicates −30%-−70%)”. On BRG1, the DC50 is below 10 nM and the Dmax lay within 0 to 30%. On BRM [2], the “Median HiBiT activity 1 μM” value is recorded as −50.6553% and the “Median HiBiT activity 10 μM” value is −33.5251%.
In the case of `Nc1nnc(-c2ccccc2O)cc1N1CC2CCC(C1)N2c1ccnc(C#CCN2CCNCC2=O)c1` [Compound 10, 1-(3-(4-(3-(3-amino-6-(2-hydroxyphenyl)pyridazin-4-yl)-3,8-diazabicyclo[3.2.1]octan-8-yl)pyridin-2-yl)prop-2-yn-1-yl)piperazin-2-one], at BRM [1], the DC50 was 10 to 100 nM and the “BRM IF Degradation Sinf (%)” value is listed as “E (E indicates −30%-−70%)”. For the same molecule, the DC50 on BRG1 is above 100 nM. Further, at BRM [2], the “Median HiBiT activity 1 μM” value is given as −50.554% and the “Median HiBiT activity 10 μM” value is recorded as −56.7556%.
Turning to `NCCCCCCC#Cc1cc(N2C3CCC2CN(c2cc(-c4ccccc4O)nnc2N)C3)ccn1` [Compound 11, 2-(6-amino-5-(8-(2-(8-aminooct-1-yn-1-yl)pyridin-4-yl)-3,8-diazabicyclo[3.2.1]octan-3-yl)pyridazin-3-yl)phenol], at BRM [1], the DC50 was 10 to 100 nM and the “BRM IF Degradation Sinf (%)” value was “F (F indicates −71%-−120%)”. Besides, on BRG1, the DC50 is 10 to 100 nM and the Dmax lay in the range of 30 to 70%. At BRM [2], the “Median HiBiT activity 1 μM” value is on record as −46.2503% and the “Median HiBiT activity 10 μM” value is reported as −53.1423%.
In the case of `Nc1nnc(-c2ccccc2O)cc1N1CC2CCC(C1)N2c1ccnc(C#CCOC2CCCNC2)c1` (stereo not drawn) [Compound 12, 2-(6-amino-5-(8-(2-(3-(piperidin-3-yloxy)prop-1-yn-1-yl)pyridin-4-yl)-3,8-diazabicyclo[3.2.1]octan-3-yl)pyridazin-3-yl)phenol], on BRM [1], the DC50 lay in the range of 10 to 100 nM and the “BRM IF Degradation Sinf (%)” value is listed as “E (E indicates −30%-−70%)”. Moreover, on BRG1, the DC50 was in the range of 10 to 100 nM and the Dmax fell in the range of 0 to 30%. For the same molecule, on BRM [2], the “Median HiBiT activity 1 μM” value is given as −45.7932% and the “Median HiBiT activity 10 μM” value is −34.0604%.
As for `Nc1nnc(-c2ccccc2O)cc1N1CC2CCC(C1)N2c1ccnc(C#CCC2CCCCN2)c1` (stereo not drawn) [Compound 13, 2-(6-amino-5-(8-(2-(3-(piperidin-2-yl)prop-1-yn-1-yl)pyridin-4-yl)-3,8-diazabicyclo[3.2.1]octan-3-yl)pyridazin-3-yl)phenol], on BRM [1], the DC50 is 10 to 100 nM and the “BRM IF Degradation Sinf (%)” value was “E (E indicates −30%-−70%)”. On BRG1, the DC50 was in the range of 10 to 100 nM and the Dmax lay in the range of 0 to 30%. At BRM [2], the “Median HiBiT activity 1 μM” value is −44.9864% and the “Median HiBiT activity 10 μM” value is −32.1865%.
Turning to `Nc1nnc(-c2ccccc2O)cc1N1CC2CCC(C1)N2c1ccnc(C#CC2CCCN2)c1` (stereo not drawn) [Compound 14, 2-(6-amino-5-(8-(2-(pyrrolidin-2-ylethynyl)pyridin-4-yl)-3,8-diazabicyclo[3.2.1]octan-3-yl)pyridazin-3-yl)phenol], on BRM [1], the DC50 was below 10 nM and the “BRM IF Degradation Sinf (%)” value is “E (E indicates −30%-−70%)”. For the same molecule, at BRG1, the DC50 fell in the range of 10 to 100 nM and the Dmax lay in the range of 0 to 30%. Moreover, at BRM [2], the “Median HiBiT activity 1 μM” value is −42.9269% and the “Median HiBiT activity 10 μM” value is −50.5501%.
As for `Nc1nnc(-c2ccccc2O)cc1N1CC2CCC(C1)N2c1ccnc(C#CCN2CCC(N)C2)c1` (stereo not drawn) [Compound 15, 2-(6-amino-5-(8-(2-(3-(3-aminopyrrolidin-1-yl)prop-1-yn-1-yl)pyridin-4-yl)-3,8-diazabicyclo[3.2.1]octan-3-yl)pyridazin-3-yl)phenol], at BRM [1], the DC50 was above 100 nM and the “BRM IF Degradation Sinf (%)” value is given as “E (E indicates −30%-−70%)”. At BRG1, the DC50 is above 100 nM and the Dmax is 0 to 30%. Moreover, at BRM [2], the “Median HiBiT activity 1 μM” value is recorded as −41.5313% and the “Median HiBiT activity 10 μM” value is −55.0083%.
With `Nc1nnc(-c2ccccc2O)cc1N1CC2CCC(C1)N2c1ccnc(C#CCC2CCCN2)c1` (stereo not drawn) [Compound 16, 2-(6-amino-5-(8-(2-(3-(pyrrolidin-2-yl)prop-1-yn-1-yl)pyridin-4-yl)-3,8-diazabicyclo[3.2.1]octan-3-yl)pyridazin-3-yl)phenol], on BRM [1], the DC50 lay within 10 to 100 nM and the “BRM IF Degradation Sinf (%)” value was “E (E indicates −30%-−70%)”. Also, on BRG1, the DC50 is 10 to 100 nM and the Dmax was in the range of 0 to 30%. In addition, on BRM [2], the “Median HiBiT activity 1 μM” value is −38.7074% and the “Median HiBiT activity 10 μM” value was −29.4258%.
With `Nc1nnc(-c2ccccc2O)cc1N1CC2CCC(C1)N2c1ccnc(C#CC2CCN2)c1` (stereo not drawn) [Compound 17, 2-(6-amino-5-(8-(2-(azetidin-2-ylethynyl)pyridin-4-yl)-3,8-diazabicyclo[3.2.1]octan-3-yl)pyridazin-3-yl)phenol], at BRM [1], the DC50 is 10 to 100 nM and the “BRM IF Degradation Sinf (%)” value was “E (E indicates −30%-−70%)”. Moreover, on BRG1, the DC50 fell in the range of 10 to 100 nM and the Dmax was 0 to 30%. Further, at BRM [2], the “Median HiBiT activity 1 μM” value is recorded as −37.0864% and the “Median HiBiT activity 10 μM” value was −51.9890%.
As for `Nc1nnc(-c2ccccc2O)cc1N1CC2CCC(C1)N2c1ccnc(C#CCN2CCS(=O)(=O)CC2)c1` [Compound 18, 4-(3-(4-(3-(3-amino-6-(2-hydroxyphenyl)pyridazin-4-yl)-3,8-diazabicyclo[3.2.1]octan-8-yl)pyridin-2-yl)prop-2-yn-1-yl)thiomorpholine1,1-dioxide], at BRM [1], the DC50 was above 100 nM and the “BRM IF Degradation Sinf (%)” value was “E (E indicates −30%-−70%)”. Also, at BRG1, the DC50 is above 100 nM. Moreover, at BRM [2], the “Median HiBiT activity 1 μM” value is given as −37.0807% and the “Median HiBiT activity 10 μM” value is given as −56.4043%.
Take `Nc1nnc(-c2ccccc2O)cc1N1CC2CCC(C1)N2c1ccnc(C#CC2CCNCC2)c1` [Compound 19, 2-(6-amino-5-(8-(2-(piperidin-4-ylethynyl)pyridin-4-yl)-3,8-diazabicyclo[3.2.1]octan-3-yl)pyridazin-3-yl)phenol]: at BRM [1], the DC50 was 10 to 100 nM and the “BRM IF Degradation Sinf (%)” value is recorded as “E (E indicates −30%-−70%)”. Also, at BRG1, the DC50 is above 100 nM and the Dmax was in the range of 30 to 70%. For the same molecule, at BRM [2], the “Median HiBiT activity 1 μM” value was −36.9943% and the “Median HiBiT activity 10 μM” value was −56.3342%.
In the case of `NCCCCCCc1cc(N2C3CCC2CN(c2cc(-c4ccccc4O)nnc2N)C3)ccn1` [Compound 20, 2-(6-amino-5-(8-(2-(6-aminohexyl)pyridin-4-yl)-3,8-diazabicyclo[3.2.1]octan-3-yl)pyridazin-3-yl)phenol], at BRM [1], the DC50 was in the range of 10 to 100 nM and the “BRM IF Degradation Sinf (%)” value is recorded as “F (F indicates −71%-−120%)”. On BRG1, the DC50 is 10 to 100 nM and the Dmax is 71 to 120%. In addition, on BRM [2], the “Median HiBiT activity 1 μM” value is given as −33.3403% and the “Median HiBiT activity 10 μM” value is on record as −8.91%.
